Reference: patent publication US9834556B2, “Process of preparing 3-(3-(4-aminocyclobutyl)phenyl)-5-phenyl-3H-imidazo[4,5-B]pyridin-2-YL)pyridin-2-amine” (ARQULE, INC., priority 2014, dated 2017)
Values after ≈ are worked out from the molar mass of the structure shown.

Columns and labels:
Type in all cases: physicochemical
Conditions in all cases: organic solvent or mixture
[1] = Solubility of 3 in HOAc, 2-MeTHF and THF
Protocol: Although the reaction was high yielding, the amount of solvent required to perform the reaction limited the throughput due to the poor solubility of 3 in EtOAc. It was therefore desirable to find an alternate solvent for this reaction to prevent the risk of poor conversion while increasing the volume efficiency. To address this issue, the solubility of 3 was evaluated in HOAc and THF in addition to 2-MeTHF. […] In one embodiment, THF is used for the hydrogenation reaction. In another embodiment, 2-MeTHF is used for the hydrogenation reaction. […] In one embodiment, when the hydrogenation reaction was run at 40 psi hydrogen pressure at 40° C., the reaction was typically complete in 2 to 3 hours. The final variable which was investigated was catalyst loading. The initial 10 wt % loading was reduced to 5 wt % without any decrease in reaction time, yield or purity.

[2] = Solubility of 3 in 2-MeTHF/heptane mixtures
Protocol: A series of experiments were performed to test the solubility of 3 in a mixture of 2-MeTHF and heptane.

[3] = Solubility of 6 in extraction solvents
Protocol: While this initial trial was very promising, in subsequent experiments on larger scale, complications were encountered. One issue was that during the neutralization of acetic acid, emulsions were often obtained. Multiple solvent systems were investigated and the solubility of 6 was evaluated to estimate the efficiency of the extraction (Table 17).

[4] = Solubility of 7 in a selection of solvents
Excerpt: Isolation of 7 from the MSA aqueous layer was completed by addition of DCM followed by basification with aqueous NaOH to extract the 7 free base into the DCM layer. […] Isolation from the DCM solution was developed by concentrating the volume of the DCM to induce crystallization followed by the addition of heptane as an anti-solvent. […] Possible solvents candidates which could be used to efficiently extract 7 were limited to DCM due to the poor solubility of 7 in a variety of common solvents (Table 19).

## CC(C)(C)OC(=O)NC1(c2ccc(Nc3nc(-c4ccccc4)ccc3[N+](=O)[O-])cc2)CCC1 [Compound 3, tert-butyl (1-(4-((3-nitro-6-phenylpyridin-2-yl)amino)phenyl)cyclobutyl)carbamate]
[1]; in 2-MeTHF
  solubility: 100000 µg/mL (≈ 217 mM)
[1]; in HOAc
  solubility: 24800 µg/mL (≈ 53.9 mM)
[1]; in THF
  solubility: 155000 µg/mL (≈ 337 mM)
[2]; 2-MeTHF/heptane 1/0 (v/v), 2-MeTHF/heptane (v/v) 1/0, 25° C.
  solubility: 100000 µg/mL (≈ 217 mM)
[2]; 2-MeTHF/heptane 2/8 (v/v), 2-MeTHF/heptane (v/v) 2/8, 25° C.
  solubility: 300 µg/mL (≈ 0.651 mM)
[2]; 2-MeTHF/heptane 3/7 (v/v), 2-MeTHF/heptane (v/v) 3/7, 25° C.
  solubility: 1200 µg/mL (≈ 2.61 mM)
[2]; 2-MeTHF/heptane 4/6 (v/v), 2-MeTHF/heptane (v/v) 4/6, 25° C.
  solubility: 3800 µg/mL (≈ 8.25 mM)
[2]; 2-MeTHF/heptane 5/5 (v/v), 2-MeTHF/heptane (v/v) 5/5, 25° C.
  solubility: 4500 µg/mL (≈ 9.77 mM)
[2]; 2-MeTHF/heptane 6/4 (v/v), 2-MeTHF/heptane (v/v) 6/4, 25° C.
  solubility: 8000 µg/mL (≈ 17.4 mM)
[2]; 2-MeTHF/heptane 7/3 (v/v), 2-MeTHF/heptane (v/v) 7/3, 25° C.
  solubility: 13000 µg/mL (≈ 28.2 mM)
[2]; 2-MeTHF/heptane 8/2 (v/v), 2-MeTHF/heptane (v/v) 8/2, 25° C.
  solubility: 23000 µg/mL (≈ 49.9 mM)
[2]; 2-MeTHF/heptane 9/1 (v/v), 2-MeTHF/heptane (v/v) 9/1, 25° C.
  solubility: 32000 µg/mL (≈ 69.5 mM)

## CC(C)(C)OC(=O)NC1(c2ccc(-n3c(-c4cccnc4N)nc4ccc(-c5ccccc5)nc43)cc2)CCC1 [Compound 6, tert-butyl (1-(4-(2-(2-aminopyridin-3-yl)-5-phenyl-3H-imidazo[4,5-b]pyridin-3-yl)phenyl)cyclobutyl)carbamate]
[3]; Solvent 2-MeTHF
  solubility: 25000 µg/mL (≈ 46.9 mM)
[3]; Solvent DCM
  solubility: 126000 µg/mL (≈ 237 mM)
[3]; Solvent EtOAc
  solubility: 6600 µg/mL (≈ 12.4 mM)
[3]; Solvent IPAc
  solubility: 2900 µg/mL (≈ 5.44 mM)
[3]; Solvent MTBE
  solubility: 690 µg/mL (≈ 1.3 mM)
[3]; Solvent THF
  solubility: 110000 µg/mL (≈ 207 mM)
[3]; Solvent Toluene
  solubility: 4500 µg/mL (≈ 8.45 mM)

## Nc1ncccc1-c1nc2ccc(-c3ccccc3)nc2n1-c1ccc(C2(N)CCC2)cc1 [Compound 7, 3-(3-(4-(1-aminocyclobutyl)phenyl)-5-phenyl-3H-imidazo[4,5-b]pyridin-2-yl)pyridin-2-amine]
[4]; Solvent 2-MeTHF
  solubility: 4800 µg/mL (≈ 11.1 mM)
[4]; Solvent DCM
  solubility: 73000 µg/mL (≈ 169 mM)
[4]; Solvent EtOAc
  solubility: 5600 µg/mL (≈ 12.9 mM)
[4]; Solvent IPAc
  solubility: 2900 µg/mL (≈ 6.7 mM)
[4]; Solvent MTBE
  solubility: 760 µg/mL (≈ 1.76 mM)
[4]; Solvent THF
  solubility: 24000 µg/mL (≈ 55.5 mM)
[4]; Solvent Toluene
  solubility: 9300 µg/mL (≈ 21.5 mM)
